Here are results for 1 compound from PMC8795738, “The Tarantula Venom Peptide Eo1a Binds to the Domain II S3-S4 Extracellular Loop of Voltage-Gated Sodium Channel NaV1.8 to Enhance Activation” (Frontiers in Pharmacology, 2022).

For test [1], the system named is NaV1.3. The test is described as follows: I-V protocol, whole-cell patch-clamp, NaV1.3. The format is cell-based, human. The note with it: Eo1a 10 μM. The protocol: (§1) Human Embryonic Kidney (HEK) 293 cells stably expressing human NaV1.1 to NaV1.7/β1 (SB Drug Discovery, Glasgow, United Kingdom), Chinese Hamster Ovary (CHO) cells stably expressing human NaV1.8/β3 in a tetracycline-inducible system (ChanTest, Cleveland, OH, United States), and HEK293 cells stably expressing rat transient receptor potential vanilloid 1 (TRPV1) were cultured as previously described ([Yin et al., 2020]). Human KV2.1 and NaV1.7 mutants were transiently transfected into HEK293 cells stably expressing β1/β2 using Lipofectamine 2000 (Thermo Fisher Scientific, Scoresby, VIC, Australia) and used for patch-clamp experiments 48 h after transfection. Cells were grown in an incubator at 37°C with 5% CO2 and passaged every 3–4 d (at 70–80% confluency) using TrypLE Express (Thermo Fisher Scientific).
(§2) Automated whole-cell patch-clamp recordings were performed with a QPatch-16 automated electrophysiology platform (Sophion Bioscience, Ballerup, Denmark) using single-hole (QPlate 16 with a standard resistance of 2 ± 0.4 MΩ) or multi-hole (QPlate 16X with a standard resistance 0.2 ± 0.04 MΩ, NaV1.8 only) as previously described ([McMahon et al., 2020]).
The extracellular solution (ECS) consisted of (in mM) 145 NaCl (replaced with 70 choline chloride for NaV1.4, NaV1.5 and NaV1.7), 4 KCl, 2 CaCl2, 1 MgCl2, 10 HEPES, and 10 glucose, pH to 7.4 with NaOH (adjusted to 305 mOsm/L with sucrose). For NaV recordings the intracellular solution (ICS) consisted of (in mM) 140 CsF, 1 EGTA, 5 CsOH, 10 HEPES, and 10 NaCl, pH to 7.3 with CsOH (adjusted to 320 mOsm/L with sucrose). For KV2.1 recordings the ICS consisted of (in mM) 50 KCl, 60 KF, 10 EGTA, 10 HEPES, 10 NaCl pH to 7.3 with KOH (adjusted to 320 mOsm/L with sucrose). […]
The time constant of fast inactivation (τ) was computed by fitting the current decay traces with a single exponential function using QPatch Assay Software 5.6 (Sophion). The time to peak was calculated from pulse onset to peak inward current using QPatch Assay Software 5.6 (Sophion).
Background: The patch-clamp technique gives a direct electrical read-out from membranes.

Test [2] addresses T1, KV2.1 (Homo sapiens, UniProt Q14721).
T1 construct: expressed in transfected cells; host or cells: HEK293 cells stably expressing β1/β2, transient transfection with Lipofectamine 2000
T1 sequence (Q14721 1-858): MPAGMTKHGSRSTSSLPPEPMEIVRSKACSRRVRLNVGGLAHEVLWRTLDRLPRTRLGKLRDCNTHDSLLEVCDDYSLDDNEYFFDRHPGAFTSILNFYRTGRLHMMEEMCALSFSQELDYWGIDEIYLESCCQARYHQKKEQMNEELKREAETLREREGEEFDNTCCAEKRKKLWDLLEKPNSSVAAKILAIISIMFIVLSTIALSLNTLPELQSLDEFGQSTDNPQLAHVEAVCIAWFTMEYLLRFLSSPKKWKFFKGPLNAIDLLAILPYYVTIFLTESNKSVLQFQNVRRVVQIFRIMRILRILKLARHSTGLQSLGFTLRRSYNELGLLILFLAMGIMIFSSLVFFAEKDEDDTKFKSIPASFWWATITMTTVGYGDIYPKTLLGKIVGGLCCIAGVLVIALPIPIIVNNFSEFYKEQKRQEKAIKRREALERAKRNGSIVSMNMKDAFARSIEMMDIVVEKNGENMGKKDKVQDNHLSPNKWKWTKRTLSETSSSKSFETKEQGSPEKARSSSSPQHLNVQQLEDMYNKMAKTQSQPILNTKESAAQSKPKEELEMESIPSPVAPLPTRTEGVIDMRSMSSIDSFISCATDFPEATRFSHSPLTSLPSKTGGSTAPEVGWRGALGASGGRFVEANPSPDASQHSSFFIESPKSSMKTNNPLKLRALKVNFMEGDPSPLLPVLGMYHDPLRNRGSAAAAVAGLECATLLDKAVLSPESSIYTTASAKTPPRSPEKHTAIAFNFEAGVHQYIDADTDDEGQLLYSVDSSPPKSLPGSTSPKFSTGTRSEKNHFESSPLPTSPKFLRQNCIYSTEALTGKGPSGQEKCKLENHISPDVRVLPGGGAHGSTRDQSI
Briefly: KV2.1 currents, whole-cell patch-clamp. It is filed as cell-based. The following applies: Eo1a 10 μM, 5 min, HEK293, human KV2.1, n = 3. The procedure: as §1, §2
The extracellular solution (ECS) consisted of (in mM) 145 NaCl (replaced with 70 choline chloride for NaV1.4, NaV1.5 and NaV1.7), 4 KCl, 2 CaCl2, 1 MgCl2, 10 HEPES, and 10 glucose, pH to 7.4 with NaOH (adjusted to 305 mOsm/L with sucrose). For NaV recordings the intracellular solution (ICS) consisted of (in mM) 140 CsF, 1 EGTA, 5 CsOH, 10 HEPES, and 10 NaCl, pH to 7.3 with CsOH (adjusted to 320 mOsm/L with sucrose). For KV2.1 recordings the ICS consisted of (in mM) 50 KCl, 60 KF, 10 EGTA, 10 HEPES, 10 NaCl pH to 7.3 with KOH (adjusted to 320 mOsm/L with sucrose). TTX (1 μM) was added to the ECS for NaV1.8 recordings to inhibit background endogenous TTX sensitive current in CHO cells.
KV2.1 currents were acquired using a holding potential of −80 mV and a 300 ms pulse to +50 mV every 20 s (0.05 Hz). Eo1a was incubated for 5 min and compared to buffer control.

Where a SMILES comes first, the peptide text is derived from it. Bridges are numbered along the chain shown (N, C = ends).

For the compound `CC[C@H](C)[C@@H]1NC(=O)[C@H](CCCNC(=N)N)NC(=O)[C@@H]2CSSC[C@@H]3NC(=O)CNC(=O)CNC(=O)[C@H](CC(C)C)NC(=O)[C@H](Cc4ccccc4)NC(=O)[C@H](Cc4c[nH]c5ccccc45)NC(=O)[C@H](CCCNC(=N)N)NC(=O)[C@@H](NC(=O)[C@@H](N)CC(=O)O)CSSC[C@H](NC(=O)[C@H](CSSC[C@@H](C(=O)N[C@@H](C)C(=O)N[C@@H](Cc4c[nH]c5ccccc45)C(=O)N[C@@H](CC(=O)O)C(=O)NCC(=O)N[C@H](C(=O)N[C@@H](Cc4ccccc4)C(N)=O)[C@@H](C)O)NC(=O)[C@H](Cc4ccc(O)cc4)NC(=O)[C@H](CCCCN)NC(=O)[C@H]([C@@H](C)CC)NC(=O)[C@H](Cc4ccc(O)cc4)NC(=O)CNC(=O)[C@H](CC(=O)O)NC1=O)NC(=O)[C@H](CC(=O)O)NC(=O)[C@H](CO)NC(=O)[C@H](CC(=O)O)NC(=O)[C@H](CCCCN)NC(=O)[C@H](CO)NC3=O)C(=O)N[C@@H](CCCCN)C(=O)N[C@@H](Cc1c[nH]cn1)C(=O)N[C@@H](CC(C)C)C(=O)N[C@@H](C)C(=O)N2` [Eo1a] (H-DCRWFLGGCSKDSDCCKHLACRIDGYIKYCAWDGTF-NH2; disulfide 2-16, 9-21, 15-30 (inferred); N-terminus assumed), the V1/2 activation in test [1] (5 min, control −20.4 ± 2.2 mV, *p < 0.05, mean ± SEM, n = 4–6) is −27.9 mV. In test [1] (5 min, control −63.2 ± 1.0 mV, mean ± SEM, n = 4–6), the “V1/2 inactivation (steady-state fast inactivation)” value is on record as −63.0 ± 1.5. Further, in test [1] (test pulse −20 mV), the “effect on inactivation kinetics” value is given as “minimal effect”. Further, the “τactivation of KV2.1” value in test [2] (300 ms pulse to +50 mV, buffer 5.1 ± 0.4 ms) was 13.6 ± 2.7 ms. Besides, the “late current size of KV2.1, I250 ms” value in test [2] (holding −80 mV, 300 ms pulse to +50 mV, buffer 6.25 ± 0.9 nA) is 6.34 ± 0.9 nA. In addition, the “KV2.1 late current, inhibitory activity” value in test [2] is given as “no inhibitory activity”.
